Conditions: for molar entropy: 101.33 kPa, Small (less than 1 g) adiabatic calorimetry

CCOS(=O)(=O)[O-].CCn1cc[n+](C)c1 [1-ethyl-3-methylimidazolium ethyl sulfate]
Conditions | Glass transition temperature [°C]
Glass, Adiabatic calorimetry | -88

CCCCn1cc[n+](C)c1.F[B-](F)(F)F [1-butyl-3-methylimidazolium tetrafluoroborate]
Conditions | Glass transition temperature [°C]
Glass, Adiabatic calorimetry | -92

CCCCCCCC[n+]1ccn(C)c1.F[B-](F)(F)F [1-methyl-3-octylimidazolium tetrafluoroborate]
Conditions | Glass transition temperature [°C] | Triple point temperature [K] | molar entropy [J/K/mol]
0 K, Glass | – | – | 13.9
5 K, Crystal | – | – | 0.507
5 K, Glass | – | – | 14.5
10 K, Crystal | – | – | 3.61
10 K, Glass | – | – | 18
15 K, Crystal | – | – | 9.69
15 K, Glass | – | – | 24.5
20 K, Crystal | – | – | 17.96
20 K, Glass | – | – | 33.1
25 K, Crystal | – | – | 27.66
25 K, Glass | – | – | 43.1
30 K, Crystal | – | – | 38.29
30 K, Glass | – | – | 54.1
35 K, Crystal | – | – | 49.44
35 K, Glass | – | – | 65.5
40 K, Crystal | – | – | 60.82
40 K, Glass | – | – | 77.1
45 K, Crystal | – | – | 72.28
45 K, Glass | – | – | 88.7
50 K, Crystal | – | – | 83.73
50 K, Glass | – | – | 100.3
60 K, Crystal | – | – | 106.3
60 K, Glass | – | – | 123.1
70 K, Crystal | – | – | 128.1
70 K, Glass | – | – | 145.2
80 K, Crystal | – | – | 149.2
80 K, Glass | – | – | 166.7
90 K, Crystal | – | – | 169.5
90 K, Glass | – | – | 187.6
100 K, Crystal | – | – | 189.1
100 K, Glass | – | – | 207.9
110 K, Crystal | – | – | 208
110 K, Glass | – | – | 227.7
120 K, Crystal | – | – | 226.3
120 K, Glass | – | – | 247
130 K, Crystal | – | – | 244.2
130 K, Glass | – | – | 265.9
140 K, Crystal | – | – | 261.5
140 K, Glass | – | – | 284.4
150 K, Crystal | – | – | 278.4
150 K, Glass | – | – | 302.8
160 K, Crystal | – | – | 295
160 K, Glass | – | – | 320.9
170 K, Crystal | – | – | 311.3
170 K, Glass | – | – | 338.9
180 K, Crystal | – | – | 327.5
180 K, Glass | – | – | 356.9
190 K, Crystal | – | – | 343.6
190 K, Glass | – | – | 375.5
200 K, Crystal | – | – | 359.6
200 K, Liquid | – | – | 398.7
210 K, Crystal | – | – | 375.6
210 K, Liquid | – | – | 421.4
220 K, Crystal | – | – | 391.5
220 K, Liquid | – | – | 442.9
230 K, Crystal | – | – | 407.4
230 K, Liquid | – | – | 463.6
240 K, Crystal | – | – | 423.2
240 K, Liquid | – | – | 483.5
245.81 K, Crystal | – | – | 432.4
245.81 K, Liquid | – | – | 494.7
250 K, Liquid | – | – | 502.7
260 K, Liquid | – | – | 521.3
270 K, Liquid | – | – | 539.4
280 K, Liquid | – | – | 557
290 K, Liquid | – | – | 574.3
298.15 K, Liquid | – | – | 588
300 K, Liquid | – | – | 591.1
310 K, Liquid | – | – | 607.5
320 K, Liquid | – | – | 623.7
330 K, Liquid | – | – | 639.5
340 K, Liquid | – | – | 655
350 K, Liquid | – | – | 670.3
360 K, Liquid | – | – | 685.3
370 K, Liquid | – | – | 700.1
Crystal, Adiabatic calorimetry | – | 245.81 | –
Glass, Adiabatic calorimetry | -83 | – | –

From the NIST ThermoML archive (doi:10.1016/j.tca.2015.01.022)
